Our source for the IC50, EC50 and EC90 values is ChEMBL document CHEMBL3044853, “Anti-HIV-1 and cytotoxicity studies of piperidyl-thienyl chalcones and their 2-pyrazoline derivatives” (Med Chem Res, 2012).

For one experiment, the system named is PBMC. Put plainly: Cytotoxicity against Homo sapiens (human) PBMCs after 5 days celltiter 96 aqueous assay. As to conditions: 120 h. It counts as cell-based.
Experiment [1] has as its system Human immunodeficiency virus 1. Kind of experiment: Antiviral activity against 0.1 MOI of Human immunodeficiency virus 1 LAI infected human PBM cells after 2 to 3 hr by scintillation counting analysis in presence of [3H]thymidine-5'-triphosphate. It counts as functional, organism-based. As to conditions: PBMC.
Another experiment relates to Vero. Kind of experiment: Cytotoxicity against Chlorocebus aethiops (African green monkey) Vero cells after 5 days celltiter 96 aqueous assay. It counts as cell-based. The note with it: Chlorocebus sabaeus, 120 h.
The test system of a further experiment is CCRF-CEM. Kind of experiment: Cytotoxicity against Homo sapiens (human) CEM cells after 5 days celltiter 96 aqueous assay. It counts as cell-based. The note with it: 120 h.

Usually pIC50 stands for the IC50 on a negative log10 scale, so that one unit is a factor of ten. For orientation: pEC50 means the EC50 on a negative log10 scale, so that one unit is a factor of ten. For orientation: EC90 means the point of the concentration-response curve where the effect stands at 90%.

SMILES strings stand for the structures. pEC50, pIC50: −log10 of the molar value.

In the case of `O=C(/C=C/c1ccc(N2CCCCC2)cc1)c1cccs1`, the values for the pIC50 in the experiment on PBMC, with Vero and in the experiment on CCRF-CEM were less than 4.00, 4.18 and 4.94, respectively. For the same compound, the pEC50 in experiment [1] is 4.13. The EC90 in experiment [1] was no less than 100 µM.
Turning to `Cc1ccc(C2=NNC(c3ccc(N4CCCCC4)cc3)C2)s1` (configuration not stated), the values for the pIC50 in the experiment on PBMC, in the experiment on Vero and in the experiment with CCRF-CEM were 4.06, 4.28 and 4.82, respectively. Also, in experiment [1], the pEC50 is 5.14. Moreover, the EC90 in experiment [1] was 52.9 µM.
As to `Clc1ccsc1C1=NNC(c2ccc(N3CCCCC3)cc2)C1` (configuration not stated), the pIC50 was 4.47 in the experiment with PBMC, 4.50 with Vero and 4.99 with CCRF-CEM. Moreover, in experiment [1], the pEC50 is 5.62. Further, the EC90 in experiment [1] worked out at 13.1 µM.
In the case of `O=C(/C=C/c1ccc(N2CCCCC2)cc1)c1ccc(Cl)s1`, the pIC50 in the experiment on PBMC was less than 4.00; with Vero, 4.49; in the experiment with CCRF-CEM, 4.38. In addition, the pEC50 in experiment [1] is 4.45. For the same compound, the EC90 in experiment [1] was no less than 100 µM.
As for `O=C(/C=C/c1ccc(N2CCCCC2)cc1)c1sccc1Cl`, the pIC50 in the experiment on PBMC is 4.49; in the experiment on Vero it was 4.74; in the experiment with CCRF-CEM it was 4.91. For the same compound, the pEC50 in experiment [1] was 5.08. The EC90 in experiment [1] came to 29 µM.
On the same counts, the results for `Clc1cc(C2=NNC(c3ccc(N4CCCCC4)cc3)C2)c(Cl)s1` (configuration not stated) are 4.23, 4.27, 4.42, 4.49 and greater than 100 µM.
On the same counts, the results for `Cc1ccsc1C(=O)/C=C/c1ccc(N2CCCCC2)cc1` are 4.58, 4.19, 5.00, 5.60 and 19.6 µM.
In the case of `O=C(/C=C/c1ccc(N2CCCCC2)cc1)c1ccsc1`, the pIC50 was less than 4.00 in the experiment with PBMC, 4.46 with Vero and 4.49 in the experiment with CCRF-CEM. Further, in experiment [1], the pEC50 is 4.25. For the same compound, the EC90 in experiment [1] is no less than 100 µM.
On the same counts, the results for `Cc1cc(C2=NNC(c3ccc(N4CCCCC4)cc3)C2)c(C)s1` (configuration not stated) are 4.11, 4.08, 4.70, 4.77 and 29.8 µM.
Consider `Cc1csc(C2=NNC(c3ccc(N4CCCCC4)cc3)C2)c1` (configuration not stated), for which the pIC50 in the experiment with PBMC is 4.61; in the experiment on Vero, 4.50; in the experiment with CCRF-CEM, 4.79. In addition, the pEC50 in experiment [1] was 4.89. In addition, in experiment [1], the EC90 was 24.9 µM.
On the same counts, the results for `Clc1ccc(C2=NNC(c3ccc(N4CCCCC4)cc3)C2)s1` (configuration not stated) are less than 4.00, less than 4.00, less than 4.00, 4.12 and greater than 100 µM.
On to `c1cc(C2=NNC(c3ccc(N4CCCCC4)cc3)C2)cs1` (configuration not stated), for which the pIC50 is less than 4.00 with PBMC, 4.53 in the experiment with Vero and 4.57 in the experiment on CCRF-CEM. Also, the pEC50 in experiment [1] is 4.95. In experiment [1], the EC90 is no less than 100 µM.
For `O=C(/C=C/c1ccc(N2CCCCC2)cc1)c1ccc(Br)s1`, the pIC50 is less than 4.00 in the experiment with PBMC, 4.16 in the experiment on Vero and 4.28 in the experiment on CCRF-CEM. In addition, the pEC50 in experiment [1] is 4.33. Moreover, the EC90 in experiment [1] was no less than 100 µM.
Consider `O=C(/C=C/c1ccc(N2CCCCC2)cc1)c1cc(Cl)sc1Cl`, for which the results for the pIC50 in the experiment with PBMC, in the experiment on Vero and with CCRF-CEM were 4.37, 4.60 and 4.82, respectively. For the same compound, the pEC50 in experiment [1] was 4.93. Besides, the 90% effect concentration (EC90) in experiment [1] was 24.7 µM.
On the same counts, the results for `Cc1csc(C(=O)/C=C/c2ccc(N3CCCCC3)cc2)c1` are 4.16, 4.25, 4.48, 4.94 and 23.1 µM.
Take `Brc1ccsc1C1=NNC(c2ccc(N3CCCCC3)cc2)C1` (configuration not stated): the pIC50 is 4.24 in the experiment with PBMC, 4.61 in the experiment with Vero and 4.50 with CCRF-CEM. The pEC50 in experiment [1] is 4.76. Moreover, the EC90 in experiment [1] was 30.4 µM.
As to `O=C(/C=C/c1ccc(N2CCCCC2)cc1)c1sccc1Br`, the values for the pIC50 in the experiment on PBMC, in the experiment with Vero and in the experiment with CCRF-CEM were 4.41, 4.74 and 4.90, respectively. Also, the pEC50 in experiment [1] is 5.24. In experiment [1], the EC90 was determined as 27.8 µM.
Regarding `Cc1cn([C@H]2C[C@H](N=[N+]=[N-])[C@@H](CO)O2)c(=O)[nH]c1=O` [ZIDOVUDINE], the pIC50 in the experiment with PBMC is less than 4.00. Also, the EC90 in experiment [1] worked out at 0.026 µM.
`Cc1ccc(C(=O)/C=C/c2ccc(N3CCCCC3)cc2)s1`: the pIC50 is 4.11 with PBMC, 4.30 in the experiment with Vero and 4.67 with CCRF-CEM. The pEC50 in experiment [1] was 4.75. Moreover, the EC90 in experiment [1] came out at 30.9 µM.
`O=C(/C=C/c1ccc(N2CCCCC2)cc1)c1ccc(I)s1`: the pIC50 in the experiment with PBMC is less than 4.00; with Vero, 4.25; with CCRF-CEM it was 4.66. Moreover, in experiment [1], the pEC50 is 4.94. In addition, the 90% effect concentration (EC90) in experiment [1] is no less than 100 µM.
On the same counts, the results for `Ic1ccc(C2=NNC(c3ccc(N4CCCCC4)cc3)C2)s1` (configuration not stated) are less than 4.00, 4.80, 4.44, 4.84 and 43.6 µM.
As for `Brc1ccc(C2=NNC(c3ccc(N4CCCCC4)cc3)C2)s1` (configuration not stated), the pIC50 in the experiment on PBMC was 4.10; with Vero it was 4.59; in the experiment on CCRF-CEM, 4.67. In addition, in experiment [1], the pEC50 is 5.05. In addition, the EC90 in experiment [1] was determined as 33.3 µM.
`Cc1cc(C(=O)/C=C/c2ccc(N3CCCCC3)cc2)c(C)s1`: the pIC50 is 4.42 with PBMC, 4.37 in the experiment on Vero and 4.78 in the experiment with CCRF-CEM. Further, the pEC50 in experiment [1] was 4.94. Moreover, the EC90 in experiment [1] was 23.6 µM.
As to `Cc1ccsc1C1=NNC(c2ccc(N3CCCCC3)cc2)C1` (configuration not stated), the pIC50 in the experiment with PBMC was 4.96; with Vero, 4.94; in the experiment on CCRF-CEM, 5.64. In experiment [1], the pEC50 was 5.29. In experiment [1], the EC90 was found to be 15.5 µM.
Take `c1csc(C2=NNC(c3ccc(N4CCCCC4)cc3)C2)c1` (configuration not stated): the pIC50 was 4.68 with PBMC, 5.49 in the experiment on Vero and 5.16 with CCRF-CEM. For the same compound, in experiment [1], the pEC50 is 5.14. Besides, the EC90 in experiment [1] is 26.8 µM.
